Results reported in patent publication US7173012B2, “Hypoglycaemic peptides and methods of use thereof” (International Diabetes Institute, priority 2001, dated 2007).
“Also recorded” adds a separate entry of the source. Ends that are not written are not given here.

Tests used:
[1] = system: isolated rat hemidiaphragm muscle; experiment: Glycogen synthesis in isolated rat hemidiaphragm muscle (incorporation of 14C-glucose into glycogen, in presence of insulin); assay type: cell-based; details: for biological activity on insulin-stimulated glycogen synthesis (in words): isolated rat muscle, FIG. 3 / FIG. 7
Method: Glycogen synthesis in isolated rat hemidiaphragm muscle was measured by the rate of incorporation of radioactive glucose into glycogen (16). Overnight-fasted male albino Wistar rats (20 week old) were killed by decapitation and their hemidiaphragm tissues immediately removed. The hemidiaphragm tissues were pre-incubated for 30 min at 37° C., in Kreb's-Ringer bicarbonate buffer (KRB) containing 1.0% bovine serum albumin BSA, and 1.0 mg/ml glucose gassed pH 7.4. After pre-incubation, the tissues were further incubated for 60 min at 37° C. in 2 ml of incubation buffer in the presence of insulin at a concentration 0.33 μu/ml and the label ^14C-glucose at 0.28 μCi/ml under an atmosphere of carbogen with or without peptide of various concentrations. At the end of the incubation, the tissues were removed and rinsed with cold distilled water, blotted and placed in a plastic centrifuge tubes for glycogen extraction with 30% KOH 10 μl/mg tissue for 5 min in a boiling water bath. The tissue ^14C-glycogen was precipitated with saturated Na2SO4 and absolute alcohol. After centrifugation at 4000×G at 4° C. for 10 min, the supematant was discarded and the precipitate washed twice by resuspending in 66% ethanol and centrifuged as before. The final glycogen precipitate was dissolved in distilled water 30 μl/mg and 1.0 ml of the solution was transferred to a counting vial containing a triton scintillator (8 ml). Radioactivity was determined in a Wallac LKB counter from Pharmacia-Wallac Oy, (Turku, Finland). The total glycogen content in the diaphragm muscle was calculated according to the method of Van Handel (17).
(§1) Experimental procedures for the in vitro and in vivo assays were described in Example 1. In principle, the rate of conversion from glucose into glycogen in isolated hemidiaphragm muscle was used as the index to determine the in vitro activity of peptides (6). The in vivo tests for the peptides were performed on Zucker fatty (fa/fa) rats by i.v. administration of peptides and the reduction of the blood glucose levels was measured and regarded as the index of the hypoglycaemic effect (18).

[2] = system: male Zucker fatty (fa/fa) rats; experiment: In vivo hypoglycaemic test: blood glucose after i.v. peptide then insulin; parameters: species or system rat; blood glucose level reduced to a maximum of / Reduction of blood glucose level: unit not given here; details: for in vivo hypoglycaemic effect on blood glucose levels (in words): i.v., overnight-fasted Zucker fatty rats, compared with saline control or comparator peptide
Method: In vivo tests of the hypoglycaemic peptides were performed on overnight-fasted male Zucker fatty (fa/fa) rats 45 min after induction of anaesthesia with an intraperitoneal injection of sodium pentobarbitone at a dose 60 mg/kg body weight. Basal blood glucose samples were collected from the cut tip of the tail. The two femoral veins in the anaesthetised animals were then exposed, followed immediately by an intravenous injection of saline (control) or peptide into the left femoral vein. Approximately 15 min after the administration of peptide or saline via the left femoral vein, insulin was injected via the right femoral vein. […] Blood glucose levels of the collected samples were measured immediately by the glucose oxidation method using a Yellow Springs YSI modal 2300 STAT Glucose Analyzer (Yellow Spring, Ohio).
as §1

[3] = Isoaspartate (β-isomerised) formation in synthetic peptides, by reverse-phase HPLC; assay type: physicochemical; details: β-isomerised peptide obtained after synthesis (piperidine deprotection, TFA cleavage), HPLC 214 nm
Method: A mixture of synthetic peptides (Gly-His-Thr-Asp, Val-His-Thr-Asp and Asp-His-Thr-Gly) and their corresponding β-isomerised formation (Gly-His-Thr-βAsp, Val-His-Thr-βAsp and βAsp-His-Thr-Gly) were separated by reverse-phase HPLC and eluted with an isocritic running with 2% buffer B (buffer A is 0.1% trifluoroacetic acid in H2O) at 1 ml/min over 30 min. Peptides were determined by their absorbance at 214 nm.
Based on the structure of the UP-401 peptide, analogues with various sequences were synthesised for further biological characterization as shown in Table 1. All synthetic peptides were purified by RP-HPLC using a C18 column and characterized by mass spectrometry. During synthesis, the peptide chains were treated with base (piperidine) in deprotection steps and then eventually treated with TFA at cleavage steps.
Table 2 and FIG. 5 outline the amino acid sequence of the UP-401 peptide and its analogues, and the ratio of nonisomerized and β-isomerised peptide obtained in each.

[4] = 3 mg/kg body weight, Example 1, FIG. 4

Row | Substance | biological activity on insulin-stimulated glycogen synthesis (in words) [1] | Reduction of blood glucose level ([2]; 3 mg, 15 min) | Reduction of blood glucose level ([2]; 3 mg, 30 min) | Reduction of blood glucose level ([2]; 3 mg, 45 min) | Reduction of blood glucose level ([2]; 3 mg, 60 min) | Reduction of blood glucose level ([2]; 3 mg, 75 min) | Reduction of blood glucose level ([2]; 3 mg, 90 min) | in vivo hypoglycaemic effect on blood glucose levels (in words) [2] | Isoasp [3] | other results
1 | Val-His-Thr-Pro-NH2 (VHTP-NH2) [UP-404] | reduced the potency | −0.21 | −0.54 | −0.77 | −0.95 | 0.23 | −0.03 | – | – | biological activity on insulin-stimulated glycogen synthesis (in words) ([1]; listed as Val-His-Thr-Pro): no appreciable stimulation
2 | Gly-His-Thr-Asp-NH2 (GHTD-NH2) [UP-401] | better insulin-potentiating effect than that of the known insulin-potentiating hGH(6–13) peptide | −0.50 | −0.91 | −1.1 | −0.93 | −0.64 | −0.08 | significant | 45.2 | increase of glycogen synthesis ([1]; isolated rat hemi-diaphragm, with insulin, synthetic peptide 0.1 μM (FIG. 3)): 36.3%; hypoglycaemic action diminished after [2, 4]: 90 min; in vivo hypoglycaemic action found after the injection (onset) [2, 4]: 15 min; time of maximal hypoglycaemic effect after treatment [2, 4]: 45 min; time of maximal decrease in blood glucose level after treatment ([2]; 3 mg/kg, Example 2): 60 min
3 | isoAsp-His-Thr-Gly-NH2 (XHTG; HELM PEPTIDE1{[N[C@@H](CC(=O)[*:2])C(=O)O].H.T.G.[am]}$$$$V2.0; N-terminus assumed; SMILES C[C@@H](O)[C@H](NC(=O)[C@H](Cc1c[nH]cn1)NC(=O)C[C@H](N)C(=O)O)C(=O)NCC(N)=O) [UP-407] | reduced the peptide activity | – | – | – | – | – | – | – | – | biological activity on insulin-stimulated glycogen synthesis (in words) ([1]; listed as βAsp-His-Thr-Gly): also detected
4 | Asp-His-Thr-Gly-NH2 (DHTG-NH2) [UP-403] | reduced the peptide activity; also recorded: reduced the potency | – | – | – | – | – | – | – | 75.2 | biological activity on insulin-stimulated glycogen synthesis (in words) ([1]; listed as Asp-His-Thr-Gly): also detected
5 | Val-His-Thr-Asp-NH2 (VHTD-NH2) [UP-402] | much higher than that of any other peptide | −0.26 | −0.62 | −1.21 | −1.25 | −0.64 | 0.05 | – | 48.3 | higher glycogen synthesis ([1]; in vitro, insulin-stimulated, isolated rat muscle (FIG. 7)): 68%; blood glucose level reduced to a maximum of ([2]; 3 mg/kg body weight): 0.95; effect on blood glucose prolonged to ([2]; 4.5 mg/kg body weight, FIG. 8): 120 min; Reduction of blood glucose level ([2]; 4.5 mg, 15 min): −0.43; Reduction of blood glucose level ([2]; 4.5 mg, 30 min): −1.03; Reduction of blood glucose level ([2]; 4.5 mg, 45 min): −1.50; Reduction of blood glucose level ([2]; 4.5 mg, 60 min): −1.45; Reduction of blood glucose level ([2]; 4.5 mg, 75 min): −1.52; Reduction of blood glucose level ([2]; 4.5 mg, 90 min): −1.35; Reduction of blood glucose level ([2]; 4.5 mg, 120 min): 0.07
6 | Val-His-Thr-isoAsp-NH2 (VHTX; HELM PEPTIDE1{V.H.T.[O=C(O)[C@H](CC(=O)[*:2])N[*:1]].[am]}$$$$V2.0; N-terminus assumed; SMILES CC(C)[C@H](N)C(=O)N[C@@H](Cc1c[nH]cn1)C(=O)N[C@H](C(=O)N[C@@H](CC(N)=O)C(=O)O)[C@@H](C)O) [UP-406] | reduced the potency | – | – | – | – | – | – | No significant difference | – | biological activity of isoaspartate peptide, reduced to (relative to Val-His-Thr-Asp) ([1]; peptide concentration of 0.1 mM, insulin-stimulated glycogen synthesis): 46%
